Source: ChEMBL document CHEMBL5257105, “Identification and structure-activity relationships for a series of N, N-disubstituted 2-aminobenzothiazoles as potent inhibitors of S. aureus” (Bioorg Med Chem Lett, 2023)
Values after ≈ are worked out from the molar mass of the structure shown. Values joined by “and” are separate entries in the source; they are usually repeats but may differ in a detail not shown here. Equal values may be shown once. Active and inactive are the calls of the source. No cut-off for these calls is given here.

What was measured:
[1] = (§1) Cytotoxicity against human A549 cells; format: toxicity, cell-based; conditions: A549 cells
[2] = system: Staphylococcus aureus; experiment: Antibacterial activity against Staphylococcus aureus; format: functional
[3] = system: Staphylococcus aureus; experiment: Antibacterial activity against Staphylococcus aureus ATCC 223; format: functional
[4] = system: Staphylococcus aureus; experiment: Antibacterial activity against Staphylococcus aureus ATCC 25923; format: functional
[5] = system: Staphylococcus aureus; experiment: Antibacterial activity against Staphylococcus aureus ATCC 219; format: functional
[6] = system: A549; experiment: as §1; format: toxicity, cell-based; conditions: a549
[7] = system: Staphylococcus aureus; experiment: Antibacterial activity against Staphylococcus aureus ATCC 216; format: functional
[8] = system: Staphylococcus aureus; experiment: Antibacterial activity against Staphylococcus aureus ATCC 701; format: functional
[9] = system: Staphylococcus aureus; experiment: Antibacterial activity against Staphylococcus aureus ATCC 711; format: functional
[10] = system: Staphylococcus aureus; experiment: Antibacterial activity against Staphylococcus aureus ATCC 716; format: functional
[11] = system: Escherichia coli; experiment: Antibacterial activity against […] Escherichia coli harbouring TolC-deficient mutant with pore; format: functional
[12] = system: Escherichia coli; experiment: Antibacterial activity against wild type Escherichia coli harbouring pore; format: functional
[13] = system: Escherichia coli; experiment: Antibacterial activity against Escherichia coli; format: functional
[14] = system: Escherichia coli; experiment: Antibacterial activity against […] Escherichia coli harbouring TolC-deficient mutant; format: functional
[15] = system: Pseudomonas aeruginosa; experiment: Antibacterial activity against Pseudomonas aeruginosa PAO1 harbouring pore; format: functional
[16] = system: Pseudomonas aeruginosa; experiment: Antibacterial activity against Pseudomonas aeruginosa PAO1; format: functional
[17] = system: Pseudomonas aeruginosa; experiment: Antibacterial activity against Pseudomonas aeruginosa PAO1 harbouring delta6 mutant with pore; format: functional
[18] = system: Pseudomonas aeruginosa; experiment: Antibacterial activity against Pseudomonas aeruginosa PAO1 harbouring delta6 mutant; format: functional
[19] = system: Staphylococcus aureus; experiment: Antibacterial activity against Staphylococcus aureus ATCC 215; format: functional
[20] = system: Acinetobacter baumannii; experiment: Antibacterial activity against Acinetobacter baumannii ATCC 17978; format: functional
[21] = system: Staphylococcus aureus; experiment: Antibacterial activity against Staphylococcus aureus ATCC 217; format: functional
[22] = system: Staphylococcus aureus; experiment: Bactericidal activity against Staphylococcus aureus ATCC 25923 at 16 times MIC measured after 9.5 to 40 hrs by time kill assay; format: functional, organism-based; conditions: time 9.5-40 hrs
[23] = system: Staphylococcus aureus; experiment: Bacteriostatic activity against Staphylococcus aureus ATCC 25923 at 4 times MIC measured after 5 to 40 hrs by time kill assay; format: functional, organism-based; conditions: time 5-40 hrs
[24] = system: Escherichia coli; experiment: Antibacterial activity against Escherichia coli BW25113; format: functional
[25] = system: Staphylococcus aureus; experiment: Bacteriostatic activity against Staphylococcus aureus ATCC 25923 at MIC measured after 5 to 40 hrs by time kill assay; format: functional, organism-based; conditions: time 5-40 hrs
[26] = Selectivity ratio of CC50 for human A549 cells to MIC for Staphylococcus aureus; format: toxicity
[27] = Staphylococcus aureus, read-out: MIC
[28] = Staphylococcus aureus, read-out: MIC80

Row | SMILES | MIC [2, 27] | CC50 [6] | MIC [11] | MIC [12] | MIC [14] | MIC [16] | MIC [17] | MIC [18] | other results
1 | O=C(c1ccco1)N(CCCn1ccnc1)c1nc2ccccc2s1 | 44.4 µM (≈ 15.6 µg/mL) | – | – | – | – | – | – | – | CC50 [1]: 142 µM
2 | Cc1cc(Cl)cc2sc(N(CCCn3cc[n+](C)c3)C(=O)c3ccco3)nc12 | – | – | – | – | – | – | – | – | MIC80 [2]: 29.6 µM and 13.2 µM
3 | Cc1ccoc1C(=O)N(CCCn1ccnc1)c1nc2c(C)cc(Cl)cc2s1 | 2.6 µM (≈ 1.08 µg/mL) | 90.2 µM | – | – | – | – | – | – | MIC [3]: 9.9 µM (≈ 4.11 µg/mL); MIC [4]: 2.6 µM (≈ 1.08 µg/mL); MIC [5]: 22.2 µM (≈ 9.21 µg/mL); MIC [7]: 14.8 µM (≈ 6.14 µg/mL); MIC [8]: 14.8 µM (≈ 6.14 µg/mL); MIC [9]: 14.8 µM (≈ 6.14 µg/mL); MIC [10]: 14.8 µM (≈ 6.14 µg/mL)
4 | Cc1cc(Cl)cc2sc(N(CC3CCC(N)CC3)C(=O)c3ccco3)nc12 (stereo unspecified) | – | – | 25 µM (≈ 10.1 µg/mL) | 100 µM (≈ 40.4 µg/mL) | 50 µM (≈ 20.2 µg/mL) | > 200 µM | 12.5 µM (≈ 5.05 µg/mL) | – | MIC [13]: > 200 µM; MIC [15]: > 200 µM; MIC80 [2]: 29.6 µM (≈ 12 µg/mL); MIC80 [2, 28]: 19.8 µM (≈ 8 µg/mL)
5 | Cc1cc(Cl)cc2sc(N(CCCn3ccnc3)C(=O)C(C)C)nc12 | 3.9 µM (≈ 1.47 µg/mL) | – | 3.2 µM (≈ 1.21 µg/mL) | > 100 µM | 3.2 µM (≈ 1.21 µg/mL) | > 200 µM | 0.78 µM (≈ 0.294 µg/mL) | 50 µM (≈ 18.8 µg/mL) | CC50 [1]: 46.4 µM; MIC [13]: > 100 µM; MIC [15]: > 200 µM; MIC [2]: 2.6 µM (≈ 0.98 µg/mL)
6 | Cc1cc(Cl)cc2sc(N(CC3CCNCC3)C(=O)c3ccco3)nc12 | – | – | 50 µM (≈ 19.5 µg/mL) | 200 µM (≈ 78 µg/mL) | 50 µM (≈ 19.5 µg/mL) | > 200 µM | 25 µM (≈ 9.75 µg/mL) | 25 µM (≈ 9.75 µg/mL) | MIC [13]: 200 µM (≈ 78 µg/mL); MIC [15]: > 200 µM; MIC80 [2]: 19.8 µM (≈ 7.72 µg/mL); MIC80 [2, 28]: 13.2 µM (≈ 5.15 µg/mL)
7 | Cc1cc(Cl)cc2sc(N(CCCn3ccnc3)C(=O)C3CCC3)nc12 | 2.6 µM (≈ 1.01 µg/mL) | 44.6 µM | – | – | – | – | – | – | –
8 | Cc1cc(Cl)cc2sc(N(CCCn3ccnc3)C(=O)C3CCCO3)nc12 (stereo unspecified) | 13.2 µM (≈ 5.34 µg/mL) | 87.6 µM | – | – | – | – | – | – | –
9 | Cc1cc(Cl)cc2sc(N(CCCn3ccnc3)C(=O)c3ccco3)nc12 | – | 12 µM | – | – | – | > 100 µM | 6.25 µM (≈ 2.51 µg/mL) | > 200 µM | MIC [19]: 14.8 µM (≈ 5.93 µg/mL); MIC [3]: 6.6 µM (≈ 2.65 µg/mL); MIC [20]: > 100 µM; MIC [5]: 2.9 µM (≈ 1.16 µg/mL); CC50 [1]: 34.1 µM; MIC [21]: 6.6 µM (≈ 2.65 µg/mL); Activity [22]: Active; MIC [7]: 4.4 µM (≈ 1.76 µg/mL); MIC [8]: 4.4 µM (≈ 1.76 µg/mL); MIC [9]: 6.6 µM (≈ 2.65 µg/mL); Activity [23]: Active; MIC [24]: > 100 µM; Activity [25]: Active; MIC [10]: 4.4 µM (≈ 1.76 µg/mL)
10 | Cc1cc(Cl)cc2sc(N(CCCn3ccnc3)CS(=O)(=O)c3ccco3)nc12 | – | – | – | – | – | – | – | – | CC50 [1]: 43.2 µM; MIC80 [2, 28]: 3.9 µM (≈ 1.76 µg/mL)
11 | O=C(c1ccco1)N(CCCn1ccnc1)c1nc2ccc(Cl)nc2s1 | > 100 µM | – | – | – | – | – | – | – | –
12 | NCc1cccc2sc(N(CCCn3ccnc3)C(=O)c3ccco3)nc12 | 66.7 µM (≈ 25.4 µg/mL) | – | 100 µM (≈ 38.1 µg/mL) | > 200 µM | 100 µM (≈ 38.1 µg/mL) | > 200 µM | 100 µM (≈ 38.1 µg/mL) | 100 µM (≈ 38.1 µg/mL) | MIC [13]: > 200 µM; MIC [15]: > 200 µM
13 | CO[C@@H]1[C@@H](OC(N)=O)[C@@H](O)[C@H](Oc2ccc3c(O)c(NC(=O)c4ccc(O)c(CC=C(C)C)c4)c(=O)oc3c2C)OC1(C)C [NOVOBIOCIN] | – | – | 0.125 µM (≈ 0.0766 µg/mL) | 64 µM (≈ 39.2 µg/mL) | 1 µM (≈ 0.613 µg/mL) | > 512 µM | 4 µM (≈ 2.45 µg/mL) | 256 µM (≈ 157 µg/mL) | –
14 | Cc1cc(Cl)cc2sc(N(CCCn3ccnc3)C(=O)c3ccccc3)nc12 | 4.9 µM (≈ 2.01 µg/mL) | 37.2 µM | – | – | – | – | – | – | –
15 | Cc1ccc(C(=O)N(CCCn2ccnc2)c2nc3c(C)cc(Cl)cc3s2)o1 | 2.6 µM (≈ 1.08 µg/mL) | 35.2 µM | – | – | – | – | – | – | –
16 | Cc1cc(Cl)cc2sc(N(CCCn3ccnc3)C(=O)C3CCCC3)nc12 | 1.7 µM (≈ 0.685 µg/mL) | 59.7 µM | – | – | – | – | – | – | selectivity ratio [26]: 34
17 | NCc1ccc2nc(N(CCCn3ccnc3)C(=O)c3ccco3)sc2c1 | > 100 µM | – | – | – | – | – | – | – | –
18 | Cc1cc(Cl)cc2sc(NC(=O)c3ccco3)nc12 | > 100 µM | – | – | – | – | – | – | – | CC50 [1]: 17.9 µM
19 | Cc1cc(Cl)cc2sc(N(CC3CCCNC3)C(=O)c3ccco3)nc12 (stereo unspecified) | – | – | 50 µM (≈ 19.5 µg/mL) | 100 µM (≈ 39 µg/mL) | 100 µM (≈ 39 µg/mL) | > 200 µM | 25 µM (≈ 9.75 µg/mL) | > 200 µM | MIC [15]: > 200 µM; MIC80 [2]: 19.8 µM (≈ 7.72 µg/mL); MIC80 [2, 28]: 29.6 µM (≈ 11.5 µg/mL)
